Source: PMC12860872, “Preclinical evaluation of DOTAGA.Glu.(FAPI)2 and DO3A.Glu.(FAPI)2 as theranostics with human dosimetry extrapolation to lutetium-177 and terbium-161 analogs” (European Journal of Nuclear Medicine and Molecular Imaging, 2025)

Tests used:
FAP+ CAFs = test: Externalization from CAFs; format: cell-based, human; conditions: after 24 h at 37 °C
Method: For receptor saturation studies, FAP^+ CAFs were incubated with 0.1 to 10 nM of the radioligands. For internalization studies, approximately 2.5 pmol of the radioligands were added to CAFs followed by incubation for 15, 30, 60, 90, 120, 180 and 240 min for the ^68Ga-labeled or 30, 60, 120, 240 and 360 min for the ^177Lu-labeled radioligands at 37 °C, 5% CO2. For the externalization studies, approximately 2.5 pmol of the ^177Lu-labeled radioligands were added to CAFs followed by incubation for 2 h at 37 °C, 5% CO2. The amount of externalized activity was measured at 0, 10, 20, 30, 60, 120, 240, and 1440 min (Supplemental Data).
After the completion of the 2 hours of incubation, the medium was removed and CAF cells were washed with 1 mL of cold PBS (x2). The cells were then exposed to an acid wash with glycine buffer, as described above, to dissociate membrane-bound radioligand, and the fractions were collected. Fresh medium (1 mL/well) was added to the cells and were incubated at 37 °C. At different time points (10, 20, 30, 60, 120, 240 and 1440 minutes) the external medium was removed (followed by two washing steps with cold PBS). […] The radioactivity of the culture medium, the membrane-bound, the internalized and the externalized fractions were measured in a gamma-counter. The externalized fraction of radioactivity was expressed as the percentage of the total internalized amount.

PC3-mice [1] = test: Organ clearance biological half-lives from biodistribution data; format: in vivo, mouse; conditions: for Bone clearance half-life, 95% confidence interval / Kidney clearance half-life, 95% confidence interval / Liver clearance half-life, 95% confidence interval / Pancreas clearance half-life, 95% confidence interval / Salivary glands clearance half-life, 95% confidence interval / Tumor clearance half-life, 95% confidence interval: PC3-mice, One-Phase Decay Model
Method: Blood samples were collected from the facial vein at 1, 3, 5, 7, 10, 15, 20, 30, 45, 60, 240, and 1440 min p.i., weighed, and measured for radioactivity using a γ-counter. Results were expressed as % I.A./g of blood and plotted over time. The initial and terminal half-lives were determined using Two-Phase Decay Model. The biological half-lives of selected organs were calculated from the biodistribution data using One-Phase Decay Model (GraphPad Prism 8).

PC3-mice [2] = test: Dosimetry in mice (nTACs, effective half-lives, TIAC/g); format: in vivo, mouse; conditions: for Effective half life: Tumor: nTACs
Method: (n = 3). The %I.A./g of tissue was calculated for liver, lungs, stomach, spleen, pancreas, kidneys, intestines, bone, muscle, salivary glands, heart wall, blood, tumor. To estimate the absolute activity in each source organ, the individual %I.A./g values were multiplied by the corresponding organ mass derived from the standard 25 g MOBY mouse phantom, yielding in the normalized source organ activities (nA) per time point and animal.
Following Cicone et al., the nA values for source organs were corrected to account for the fraction of administered activity sequestered by the tumor, as described in more detail in the dosimetry section of the supplemental data. According to the MIRD formalism, time-integrated activity coefficients (TIACs) were derived by integrating the normalized time-activity curves (nTACs), which were fitted using the bi-exponential functions. TIACs were calculated by fitting the nTACs with the bi-exponential functions and performing time integration in MATLAB. Additionally, mass-normalized TIACs (TIAC/g) were derived using organ masses from the standard 25 g MOBY mouse phantom (Supplemental data).
Biodistribution kinetics for [177Lu]Lu-DOTAGA.Glu.(FAPI)2 and [177Lu]Lu-DO3A.Glu.(FAPI)2 were assessed by ex vivo quantification of the accumulated radioactivity in source organs using a calibrated gamma counter at 4, 24, 48, 72, and 96 hours p.i. (n=3). The percentage of injected activity per gram of tissue (%I.A./g) was calculated, as described above, for a comprehensive panel of tissues, including liver, lungs, stomach, spleen, pancreas, kidneys, intestines, bone, muscle, salivary glands, heart wall, blood, and tumor. To estimate the absolute activity in each source organ, the individual %I.A./g values was multiplied by the corresponding organ mass derived from the standard 25 g MOBY mouse phantom, which provides high-resolution anatomical reference data for the murine models (28). […] The actual activity measurements were referred to the gamma counter measurement time (i.e. no physical decay correction to the administration time was applied). For each organ and time point, the mean nA was subsequently calculated across the three animals.
As outlined by Cicone et al., (1) the nA values for source organs were corrected to account for the fraction of administered activity sequestered by the tumor by redistributing the tumor nA (nAtumor) to organs according to the formula: […]
Where nAWB is the nA measured in the whole body. This adjustment was implemented to facilitate the extrapolation of absorbed dose data from mice to humans, considering that the tumor "sink effect" - prominent in murine models - is generally negligible in human subjects. In radiopharmaceutical dosimetry using tumor-bearing mice, the “tumor sink” effect refers to the phenomenon where large or highly avid tumors absorb a significant portion of the injected radiotracer, reducing its availability to normal organs. This can lead to artificially low uptake measurements in healthy tissues, which may not reflect what would occur in humans with smaller tumors or lower tumor burden. To correct for this, dosimetry calculations often include a "tumor sink correction" that adjusts normal organ uptake values to account for the radiotracer sequestered by the tumor, ensuring more accurate and clinically relevant dose estimates.
According to the MIRD formalism, for each source organ, time-integrated activity coefficients (TIACs) were derived by integrating the normalized time-activity curves (nTACs), which were fitted using the bi-exponential functions. The integration of the fitted nTACs was extended to infinity for organs in which the effective half-life of the slower bi-exponential component (tslow) was shorter than the physical half-life of lutetium-177 (tslow < tphys). […]

[3] = PC3-mice, nTACs corrected for tumor sink

SMILES | initially internalized activity released (FAP+ CAFs) | Bone clearance half-life, 95% confidence interval (PC3-mice [1]) [h] | Kidney clearance half-life, 95% confidence interval (PC3-mice [1]) [h] | Liver clearance half-life, 95% confidence interval (PC3-mice [1]) [h] | Pancreas clearance half-life, 95% confidence interval (PC3-mice [1]) [h] | Salivary glands clearance half-life, 95% confidence interval (PC3-mice [1]) [h] | Tumor clearance half-life, 95% confidence interval (PC3-mice [1]) [h] | TIAC/g Bones (PC3-mice [2]; Mouse) [h/g] | TIAC/g Heart contents (PC3-mice [2]; Mouse) [h/g] | TIAC/g Kidneys (PC3-mice [2]; Mouse) [h/g] | TIAC/g Liver (PC3-mice [2]; Mouse) [h/g] | TIAC/g Pancreas (PC3-mice [2]; Mouse) [h/g] | TIAC/g Rest of the body (PC3-mice [2]; Mouse) [h/g] | TIAC/g Salivary glands (PC3-mice [2]; Mouse) [h/g] | TIAC/g Tumor (PC3-mice [2]; Mouse) [h/g] | Effective half life: Tumor (PC3-mice [2]; PC3-mice) [h] | Effective half life: Bones (PC3-mice [2]; [3]) [h] | Effective half life: Heart content (PC3-mice [2]; [3]) [h] | Effective half life: Kidney (PC3-mice [2]; [3]) [h] | Effective half life: Lung (PC3-mice [2]; [3]) [h] | further results
N#C[C@@H]1CC(F)(F)CN1C(=O)CNC(=O)c1ccnc2ccc(OCCCCNC(=O)CC[C@H](NC(=O)CN3CCN(CC(=O)[O-])CCN(CC(=O)[O-])CCN(CC(=O)[O-])CC3)C(=O)NCCCCOc3ccc4nccc(C(=O)NCC(=O)N5CC(F)(F)C[C@H]5C#N)c4c3)cc12.[177Lu+3] [[^177Lu]Lu-DO3A.Glu.(FAPI)2] | ~ 46% | 14.85 to 18.53 | 18.73 to 31.89 | 51.46 to 92.13 | 12.66 to 19.50 | 13.95 to 20.7 | 17.58 to 22.85 | 3.82 ± 0.12 | 0.12 ± 0.003 | 0.20 ± 0.01 | 3.47 ± 0.14 | 0.20 ± 0.01 | 10.77 ± 0.32 | 0.25 ± 0.02 | 1.61 ± 0.2 | 51 ± 12.6 | 23.3 ± 1.4 | 12.8 ± 0.4 | 22.3 ± 7.1 | 18.3 ± 4.4 | Effective half life: Liver (PC3-mice [2]; [3]): 70.4 ± 2.9 h; Effective half life: Pancreas (PC3-mice [2]; [3]): 14.1 ± 3.2 h; Effective half life: Salivary glands (PC3-mice [2]; [3]): 11.8 ± 5.9 h; Effective half life: Small Intestine (PC3-mice [2]; [3]): 16.2 ± 4.5 h
N#C[C@@H]1CC(F)(F)CN1C(=O)CNC(=O)c1ccnc2ccc(OCCCCNC(=O)CC[C@H](NC(=O)CCC(C(=O)O)N3CCN(CC(=O)[O-])CCN(CC(=O)[O-])CCN(CC(=O)[O-])CC3)C(=O)NCCCCOc3ccc4nccc(C(=O)NCC(=O)N5CC(F)(F)C[C@H]5C#N)c4c3)cc12.[177Lu+3] (stereo partly shown) [[^177Lu]Lu-DOTAGA.Glu.(FAPI)2] | ~ 40% | 27.60 to 33.77 | 23.41 to 38.84 | 70.61 to 362.5 | 16.87 to 39.95 | 12.06 to 34.90 | 19.85 to 32.80 | 6.65 ± 0.39 | 0.11 ± 0.005 | 0.39 ± 0.02 | 9.65 ± 0.82 | 0.29 ± 0.01 | 10.75 ± 0.68 | 0.36 ± 0.01 | 1.19 ± 0.16 | 39.1 ± 1.1 | 30.9 ± 0.5 | 12.5 ± 0.1 | 50.1 ± 3.1 | 19.9 ± 0.6 | tumor biological half-life (PC3-mice [1]; PC3-tumors): 25.5 h; Liver TIAC/g, times higher than for [177Lu]Lu-DO3A.Glu.(FAPI)2 (PC3-mice [2]; Mouse): 2.7 times; Effective half life: Pancreas (PC3-mice [2]; [3]): 40 ± 14.2 h; Effective half life: Salivary glands (PC3-mice [2]; [3]): 52.1 ± 14.9 h; Effective half life: Small Intestine (PC3-mice [2]; [3]): 25.4 ± 0.9 h
